Where no end group is shown, it is not given here.
How the values were obtained:
[1] = test system: TGFβRII; experiment: TGFβRII expression by Western analysis in UV-irradiated dermal fibroblasts; format: cell-based, human; conditions: 1-10 μM added immediately following UV; 5 h post UV treatment; primary fibroblasts
Method: Human skin dermal fibroblasts were cultured from keratome biopsies of healthy adult human skin. Cells were between passages three and six. For UV irradiation, subconfluent cells were washed once with phosphate-buffered saline (PBS) and irradiated with UV. Immediately following irradiation, negative control (vehicle) or 1 μM, 2.5 μM, 5 μM and 10 μM of IK34720 (“IK” in FIG. 3B, SEQ ID NO: 3) were added to the cell cultures.
For Western analysis, nuclear extracts were prepared, membrane fractions were prepared and resolved on 8% SDS-polyacrylamide gel electrophoresis, transferred to polyvinylidene difluoride membrane, and reacted with primary antibodies. Blots were visualized and quantified.

[2] = test system: primary keratinocytes; experiment: CPD detection by IHC in keratinocytes 3 h following UV-irradiation; format: cell-based
Method: An in vitro assay was conducted allowing for densitometry analysis of CPD detection by IHC in keratinocytes 3 h following UV-irradiation in accordance with the following protocol.
Keratinocytes were harvested and cultured as described above at Example 2. Samples were split into two groups, being UV irradiated (UVR) and non-UV irradiated (SHAM). UV-irradiation was performed by solar simulated UV-irradiation for cells, also as described above at Example 2. Irradiation solution was PBS containing 5 mM D-glucose. […]
Harvested keratinocytes were plated on poly-D-lysine coated coverslips in 96 well plates and irradiated (or sham treated) as described above in at Example 2 in PBS containing 5 mM D-glucose. Keratinocytes were fixed 3 h after UV-irradiation. Immunohistochemistry and image analysis were performed as described previously (Gordon-Thomson et al., Photochem Photobiol Sci, 2012, 11 (12): 1837-47; Gupta et al., vide supra, Rybchyn M S et al., J Invest Dermatol, 2018; 138 (5): 1146-1156). Thymine dimers were detected using the anti-thymine dimer antibody (Sigma-Aldrich, Missouri, USA) at 10 μg/mL, and quantified as an index of CPD, as previously described (Douki T and Cadet J, Biochemistry, 2001, 40 (8): 2495-501).
Following irradiation, keratinocytes were treated with either Calcitriol, vehicle control (Veh) or the polypeptide IK34720 (SEQ ID NO: 3; “IK”) IK14800; (RSKAKNPLYRRRRRRRRR), RSKAKNPLY (IK94000) and RRRRRRRRR (IK00900), at concentrations of 5 μM.

[3] = test system: human skin explants; experiment: sunburn (apoptotic) cells in UV-irradiated human skin explants; format: cell-based
Method: Skin explants were cultured irradiated and treated as described above for CPD, and subsequent to treatment were stained and quantified as described for Example 6.

[4] = test system: MM1418-C1 lightly pigmented melanoma cells; experiment: melanin content after UVB, melanoma cells; format: cell-based; conditions: 10 μM for 24 hours prior to 2 kJ/m2 UVB; measured 24 hours later; relative to untreated UVB cells
Method: In brief, MM1418-C1 lightly pigmented melanoma cells or human primary melanocytes were grown in 24 well culture plates and treated with 10 μM
RSKAKNPLYRRRRRRRRR (“IK-3”) for 24 hours prior to being exposed to 2 kJ/m2 UVB radiation. Controls (not treated with RSKAKNPLYRRRRRRRRR) labelled “Con” and “UVB”, respectively, were exposed to either 0 or 2 KJ/m2 UVB radiation. Cell groups were returned to the incubator for 24 hours and then the levels of melanin and protein in the cells were measured spectrophotometrically. In each experiment triplicate samples were measured. Data shown in FIG. 19 indicate the average values+SEM (μg melanin/mg cell protein) exposed to 0 or 2 KJ/m2 UVB which had been pre-treated with 0 or 10 μM of RSKAKNPLYRRRRRRRRR 24 hours prior to being exposed to UVB radiation. The t-test (2-tailed) was used to determine statistical significance, *p<0.05, ***p<0.001.

[5] = test system: human skin explants; experiment: CPD formation in UV-irradiated human skin explants; format: cell-based
Method: Human skin removed at elective surgery was cleaned, dissected and cut into pieces of approx. 5 mm×5 mm. Each piece was placed in a well of a 96 well plate, with individual plates prepared to assess the effects 3 hrs post treatment. All samples were performed in triplicate for each treatment. Skin was subjected to UV-radiation from solar-simulated UV source for 1.5 h (UVR), or non-irradiation (SHAM). Given that human skin is thicker than mouse skin, human skin explants were exposed to a radiation dose three times higher than that used for mouse skin, i.e., 20 J/cm2 versus 7 J/cm^2, respectively, and the output spectrum of the laboratory solar simulator has previously been reported (Rybchyn M S et al, J Invest Dermatol. 2018 May; 138 (5): 1146-1156) and treated immediately after with a vehicle control, Calcitriol (1 nM) or the polypeptide IK34720 (SEQ ID NO: 3) at concentrations of 50 μM, 250 μM or 500 μM.
Samples harvested at 3 hrs were fixed, section, stained and quantified as described in Example 5.

[6] = test system: ICR mice, punch skin wound; experiment: murine wound model, wound closure; format: in vivo; conditions: topical 10 μg per mouse daily for 10 consecutive days; Day 5 to Day 11; vs negative control (PBS)
Source text: FIGS. 1 and 2 illustrate the effect of polypeptides IK34720 (SEQ ID NO: 3—RSKAKNPLYRRRRRRRRR) (FIG. 1) and the dextro-reverso sequence IK236770 (SEQ ID NO: 4—rrrrrrrrrylpnkaksr) (FIG. 2), on wound healing over 10 days in a murine wound model in accordance with the following protocol.
Three groups of 8 male ICR mice with a mean weight of 22 g (+2 g) were used in the present study. The animals were housed in individual cages during the study. Under isoflurane gas anaesthesia, the shoulder and back region of each animal was shaved and a sharp punch (ID 12 mm) was used to induce a wound by removing the skin, including panniculus carnosus and adherent tissues on Day 1.
Following induction of the wound the polypeptides IK34720 and IK236770 were topically administered to the site of the wound at a dosage of 10 μg per animal. […] An additional group which comprised the administration of Phosphate buffered Saline (PBS) at pH 7.4 was used as a negative control.
The wound healing was analysed on Days 5, 7, 9 and 11 by tracing the periphery of the wound onto clear plastic sheets with the wound area calculated by an Image analyzer ProPlus (Media Cybernetics, Version 4.5.0.29. The percentage closure of the wound (%) was calculated. Percentage closure of the wound was determined on 5, 7, 9 and 11. ANOVA and Dunnett's test were applied to test significant significance between the treated groups (peptide and positive control groups) and the negative control group at each time point of measurement. Differences were considered statistically significant at P<0.05, and are indicated by *.

[7] = test system: Smad4; experiment: Smad4 expression in UV treated cells (data not shown); format: cell-based
[8] = 5 μM after ssUV, fixed 3 h after UV

Q: How did the “TGFβRII expression in UV treated cells” value [1] turn out when “RSKAKNPLYRRRRRRRRR (not fully specified (some residues)) [IK34720]” was run?
A: restored TGFβRII expression

Q: And the “CPD levels compared to vehicle-treated UV-irradiated keratinocytes” value [2, 8]?
A: statistically significant (*p<0.05) reduction in CPD levels

Q: And the “reduction in CPD levels compared to Calcitriol” value [2, 8]?
A: comparable reduction in CPD levels to keratinocytes treated with Calcitriol

Q: What about the “inhibition of CPD formation (average intensity of CPD staining) compared to 1,25D” value ([2]; 10 μM, FIG. 8B) of the same sequence?
A: more effective at inhibiting CPD formation than the positive control 1,25D

Q: And the “CPD levels, dose response” value ([2]; 0.5, 1, 2.5 or 5 μM after ssUV, fixed 3 h after UV)?
A: decreases CPD levels in primary keratinocytes exposed to solar simulated UV-irradiation in a dose dependent manner

Q: And the “number of apoptotic cells” value ([3]; 50 μM and 250 μM, 3 hrs and 24 hrs post UV-irradiation)?
A: reduces the number of apoptotic cells

Q: And the “number of apoptotic cells” value ([3]; 80 μM, 400 μM and 800 μM, following UV-irradiation, data not shown)?
A: statistically significantly reduces the number of apoptotic cells

Q: What about the “number of apoptotic cells” value ([3]; 500 μM, 3 hrs and 24 hrs post UV-irradiation) of the same sequence?
A: statistically significantly reduces the number of apoptotic cells

Q: And the melanin content [4]?
A: significantly decreased melanin content

Q: What about the “percentage of CPD positive cells” value ([5]; 500 μM, 3 hrs post irradiation, two individuals) of the same sequence?
A: statistically significantly reduced

Q: What about the “cells stained for CPDs” value ([5]; 3 hrs post irradiation/treatment, Calcitriol 1 nM, IK34720 50, 250 or 500 μM) of the same sequence?
A: fewer stained cells

Q: What about the wound closure percentage [6] of the same sequence?
A: statistically significant increase

Q: What about the “Smad4 expression in UV treated cells” value [7] of the same sequence?
A: restored Smad4 expression

Reference: patent US20250262139A1, “POLYPEPTIDES AND METHODS FOR IMPROVING SKIN CONDITIONS” (INTERK PEPTIDE THERAPEUTICS LIMITED, priority 2020, published 2025)
